These results are taken from a melting point compilation (Tetko et al.; mined from patent text by program, amines drawn as free bases though some values may be those of a salt).

Molecules are shown by their SMILES.

`O=C1CN(C(=O)c2ccc(Cl)cc2)N(Cc2ccc(Cl)cc2)C(=O)N1`: the melting point was found to be 202 °C.

In the case of `COCOc1ccc(C=CC(=O)c2ccc(OCc3ccccc3)cc2O)c(OCc2ccccc2)c1`, the melting point fell in the range of 147 to 148 °C.

The compound `CN(C)CCNc1ccc(O)c2c1C(=O)c1c(O)ccc(O)c1C2=O` had a melting point of 171 to 172 °C.

As for `CC(=S)OC1CCN(C(=O)OCc2ccc([N+](=O)[O-])cc2)CC1`, the melting point lay in the range of 106 to 107 °C.

The compound `COc1cc(CN(C)c2ncnc3c(N4CCOCC4)nc(N4CCC(N(C)C)CC4)nc23)cc2ccccc12` came in with a melting point of 130 °C.

Compound `O=C(Cc1cc(OC(=O)c2ccccc2)no1)OC(c1ccccc1)c1ccccc1` had a melting point of 95 to 96 °C.

Compound `CN(CCC(O)c1ccc(Cl)cc1)Cc1ccccc1F` (centres undefined) displayed a melting point of 52 to 54 °C.

`O=Cc1cc2sccc2c2ccccc12` came in with a melting point of 101 to 102 °C.

As for `COC(=O)CC1CC(c2ccc(C#N)nc2)=NO1` (centres undefined), the melting point lay within 115 to 116 °C.

`C=CCN(CC=C)c1nc(NC(C)=O)n2oc(=O)nc2n1` registered a melting point of 164 to 165 °C.

`COc1cc(C=O)cc(OC)c1Cl` gave a melting point of 112 to 113 °C.

In turn, `COc1cc(C)nc(NC(=O)NS(=O)(=O)c2cc([N+](=O)[O-])cs2)n1` registered a melting point of 155 °C.

Compound `COC(=O)CCC(=NO)C(C)(C)NCCCNC(C)(C)C(Cn1ccnc1[N+](=O)[O-])=NO` yielded a melting point of 137 to 139 °C.

The compound `O=Cc1cccc2c1sc1cc3ccccc3cc12` had a melting point of 202 to 204 °C.

For `COc1cccc(C(CNC(=O)Cc2c(Cl)cncc2Cl)c2ccccc2)c1` (centres undefined), the melting point was in the range of 142 to 143 °C.

As to `CCC1CC2C3CCC4=CC(=O)CCC4(CSC)C3CCC2(C)C1=O` (centres undefined), the melting point stood at 83 °C.

For `CC(=O)C(CCC(=O)O)(CCC(=O)O)C(C)=O`, the melting point came out at 176 °C.

Consider `Cc1c(-c2ccnnc2)ssc1=S`, for which the melting point amounted to 146 °C.

Consider `OC(COc1ccccc1-c1nc2ccccc2s1)CN1CCN(C(c2ccccc2)c2ccccc2)CC1` (centres undefined), for which the melting point was 152 to 155 °C.

Take `O=C(NCCCCCOc1cc(CN2CCCCC2)ccn1)c1cn[nH]c1`: the melting point is 105 to 106 °C.

Turning to `Cc1ccccc1C(C)Oc1cc(OCc2ccsc2)ccc1C(=O)CC(=O)C(=O)O` (racemic), the melting point is 124 to 126 °C.

On to `COC(=O)c1ccc(OC(=O)c2cc(C)c3c(c2C)C2(CCS3(=O)=O)OCCO2)cc1`, for which the melting point was 206 to 208 °C.

`COc1cc(Nc2nccc(-c3ccc(OCc4ccccc4)cc3)n2)cc(OC)c1OC` gave a melting point of 171 to 172 °C.

In the case of `CCc1nnc(SCC2=C(C(=O)O)N3C(=O)C(NC(=O)Cc4csc(=O)s4)C3SC2)s1` (centres undefined), the melting point amounted to 155 °C.

As for `O=C(O)C(=O)c1cc2ccccc2s1`, the melting point came out at 176 °C.

Take `COc1ccc(C(=O)Nc2cc([N+](=O)[O-])ccc2Cl)cc1OC`: the melting point lay in the range of 231 to 232 °C.

`O=S(=O)(c1ccccc1)n1cc(I)c2c(OCc3ccccc3)ccnc21`: the melting point fell in the range of 177 to 179 °C.

Compound `CCOC(=O)N(O)Cc1cccc(Nc2ccccc2C(=O)OC)c1C` returned a melting point of 101 to 103 °C.

In turn, `NS(=O)(=O)c1ccc(-n2ccc(C(F)F)n2)c(-c2ccc3c(c2)OCO3)c1` gave a melting point of 214 to 218 °C.

On to `COc1ccc2[nH]c(S(=O)Cc3cc(N4CCCCC4)ncn3)nc2c1` (centres undefined), for which the melting point is 98 to 101 °C.

In the case of `Cc1cc(=O)[nH]c(NC(=N)Nc2ccccc2)n1`, the melting point was 265 °C.

Take `O=C(Nc1cccc(C(=O)O)c1OCc1ccccc1Cl)c1ccccc1Cl`: the melting point was in the range of 182 to 183 °C.

`c1ccc2c(c1)Cc1ccccc1N1CCNCC21` (centres undefined) displayed a melting point of 128 to 130 °C.

In the case of `Cc1c(NC(=O)c2ccc(OC[C@@H]3CCCO3)cc2)ccc2cc(CNCC3(C)COC3)cnc12`, the melting point was in the range of 117 to 119 °C.

`COc1ccc(Br)cc1S(=O)(=O)NCCCl` displayed a melting point of 150 °C.

In the case of `COc1ccccc1N1CCN(CC(O)COc2cccc3c2CCCC3=O)CC1` (centres undefined), the melting point was determined as 120 °C.

For the compound `COc1ccc(CN2C(=O)C3(COc4cc5c(cc43)OCO5)c3ccccc32)cc1` (centres undefined), the melting point lay in the range of 147 to 148 °C.

`CCc1nc2c(cnn2CC)c(NC2CCOCC2)c1CNC(=O)c1cccc(C(=O)NCc2cc(Cl)cc(-c3cccc(CN4CCNCC4)c3)c2)c1`: the melting point fell in the range of 119 to 122 °C.

`Cc1ccc(S(=O)(=O)NCCc2cccc(OCC(=O)NCc3ccccc3)c2)cc1` showed a melting point of 118 to 120 °C.

Consider `COC(=O)c1oc2ccc(OC)cc2c1OC(C)C`, for which the melting point was 55 to 63 °C.

`CCOC(=O)CN1C(=O)[C@@H](NC(=O)OC(C)(C)C)CCc2ccccc21` displayed a melting point of 99 to 101 °C.

Regarding `NC(=O)c1ccc(-c2n[nH]c3c2Cc2ccccc2-3)cc1`, the melting point lay within 290 to 293 °C.

`Cc1cc([N+](=O)[O-])c(Cl)nc1C` had a melting point of 72 to 76 °C.

The compound `Cc1nc(-c2[nH]c3ccccc3c2C#N)no1` had a melting point of 209 to 212 °C.

Take `O=c1[nH]nc2c3c(cccc13)Oc1ccc(COCCP(=O)(OCc3ccccc3)OCc3ccccc3)cc1-2`: the melting point was in the range of 173 to 175 °C.

In turn, `Cc1cccc(NC(=O)C2=C(O)c3ccc4ccccc4c3S(=O)(=O)N2)c1` displayed a melting point of 245 °C.

As to `CS(=O)(=O)c1ccccc1C#N`, the melting point lay within 105 to 106 °C.

Consider `O=C1c2ccccc2C(=O)N1OCc1cc(Cl)c2c(c1Cl)OC(c1ccccc1)(c1ccccc1)O2`, for which the melting point was in the range of 127 to 129 °C.

With `O=[N+]([O-])c1cc(NC(=S)N2CCCCN2)c(F)cc1Cl`, the melting point was in the range of 118 to 120 °C.

For the compound `COc1cc(O)c2c(=O)c(OC)c(-c3ccc(O)cc3OC)oc2c1`, the melting point was 191 to 192 °C.

Compound `COC(=O)C(=NO)c1cnsc1` registered a melting point of 110 to 112 °C.

As to `Cc1nc(SCc2ncccc2C(=O)O)sc1CC(=O)O`, the melting point was 225 to 227 °C.

In the case of `CC(C)(C)OC(=O)C1CC1c1ccc(-c2ncn(-c3ccc(OC(F)(F)F)cc3)n2)cc1` (centres undefined), the melting point was in the range of 100 to 101 °C.

Take `Cc1cn(C2CC(O)C(COC(=O)Oc3ccc([N+](=O)[O-])cc3)O2)c(=O)[nH]c1=O` (centres undefined): the melting point fell in the range of 145 to 146 °C.

With `CC(C)NC1=NS(=O)(=O)c2sc(Br)cc2N1`, the melting point is 279 °C.

On to `CC=CC1Nc2ccccc2-c2c([N+](=O)[O-])cnn21` (centres undefined), for which the melting point is 115 to 117 °C.

`CS(=O)c1nn(Cc2cccc(C(F)(F)F)c2)c(N)c1C#N` (centres undefined) returned a melting point of 143 °C.

In the case of `COc1cc(C=O)ccc1OCC(=O)NCCO[N+](=O)[O-]`, the melting point lay within 117 to 120 °C.

`O=C1C=CC2(C=C1)CC(=O)N2OCc1ccccc1` returned a melting point of 77 to 79 °C.

`CC(C)C(NC(=O)C(C)(C)C)C(C)C` returned a melting point of 107 to 109 °C.

Turning to `CC1CC(=O)NN=C1c1ccc(NC(=O)C2CC2)cc1` (centres undefined), the melting point is 267 to 268 °C.

The compound `Cc1ccc(Cn2ccc3cc(Br)ccc32)cc1` registered a melting point of 56 to 57 °C.

For `CC(C)(C)OC(=O)N1C2C=CC(C2)N1CC(O)C(Cc1ccccc1)NC(=O)OCc1ccccc1` (mixture of isomers), the melting point is 111 to 113 °C.

`CC(=O)COc1c(-c2ccccc2)c(=O)[nH]c2cc(Cl)ccc12`: the melting point was in the range of 185 to 186 °C.

As for `NS(=O)(=O)c1cccc(Cl)c1C=C1CCOC1=O`, the melting point was in the range of 172 to 174 °C.

`COC(=O)CC(=O)CS(=O)(=O)C(c1ccc(Cl)cc1)c1ccc(Cl)cc1` showed a melting point of 76 to 78 °C.

In turn, `CN1C(=O)C(NC(=O)Oc2ccc([N+](=O)[O-])cc2)N=C(c2ccccc2F)c2ccccc21` (centres undefined) had a melting point of 202 to 204 °C.

In the case of `O=C(NCc1ccc(Cl)cc1)c1cn2c3c(cc(I)cc3c1=O)CC2CO` (centres undefined), the melting point was 222 to 223 °C.

As to `c1ccc(-c2n[nH]c3c2sc2ccccc23)cc1`, the melting point lay within 236 to 238 °C.

In turn, `Oc1ccc2c(c1)COc1c-2cc2ccc(O)cc2c1-c1ccc(F)c(F)c1` registered a melting point of 235 to 237 °C.

With `COc1cc(OC)nc(Sc2ncccc2C(=O)O)n1`, the melting point was 165 to 168 °C.

As for `CC(=O)NC[C@H]1CN2C(=O)C[C@@H]2O1`, the melting point was 82.5 to 84.5 °C.

`O=CN1CC2CCCc3c(C(=O)CCCl)ccc1c32` (centres undefined) came in with a melting point of 82 to 85 °C.

Regarding `CCc1ccc(-c2ccc3c(c2)C=C(C(=O)OC)CCS3(=O)=O)cc1`, the melting point is 173 to 176 °C.

For the compound `O=Cc1ccc2c(c1)S(=O)(=O)c1ccccc1C=C2`, the melting point is 167 to 171 °C.

In turn, `O=C(CC(=O)c1ccc(O)cc1O)c1cc(OCc2ccccc2)cc(OCc2ccccc2)c1` showed a melting point of 179 to 181 °C.

Regarding `CCOC(=O)N=P(c1ccccc1)(c1ccccc1)c1ccccc1OC`, the melting point was in the range of 80 to 83 °C.

In the case of `COc1ccc(Nc2ccc(Nc3nc(C)nc4cc(-c5ccccc5)sc34)cc2)cc1`, the melting point was in the range of 181 to 185 °C.

For `COC(=O)N1CCC(=O)C(C2(NO)OCCO2)CC1` (centres undefined), the melting point was 152 to 154 °C.

The compound `CC(C)=CC#Cc1cc(C)cc(Oc2cc(C(F)(F)F)nn2C)n1` registered a melting point of 85 °C.

Compound `CCc1ccc(SC2CCOC2=O)c(C(=O)O)c1` (centres undefined) returned a melting point of 167 to 170 °C.

For the compound `FC(F)(F)c1cc(N=NNc2cc(C(F)(F)F)cc(C(F)(F)F)c2)cc(C(F)(F)F)c1`, the melting point lay within 137 to 138 °C.

In the case of `CCC(=O)NC(Cc1ccccc1)c1ccccn1` (centres undefined), the melting point is 91 to 93 °C.

Turning to `COC(=O)C(C)Oc1ccc(Oc2ccc(Br)cc2F)cc1` (centres undefined), the melting point was 62 to 64 °C.

`CC(C)c1nn(-c2ccc(F)cn2)cc1CCCO` registered a melting point of 78 to 79 °C.

Take `CN1C(C)(C#N)CCC1(C)C#N` (centres undefined): the melting point lay within 81 to 83 °C.

Regarding `COc1cc2c(-c3ccnc(Cl)c3)c(CO)c(CO)cc2cc1OC(C)C`, the melting point lay within 129 to 131 °C.

Turning to `CN(C)C=NS(=O)(=O)c1c2c(O)cccc2nn1C`, the melting point is 118 to 119 °C.

Take `CNC(=O)c1cc(-c2ccc(OC)c(Cl)c2)nn(CC2CC2)c1=O`: the melting point fell in the range of 172 to 173 °C.

Usually melting point stands for the temperature, or range, at which the solid turns liquid.
